In brackets after ≈: the same amount, converted by molar mass. Read-outs that look alike come from different tables or passages of the source.
Columns and labels:
2780/AD = experiment: In vitro tumor cell viability assay using MTT dye; format: cell-based, Human
Description: (§1) Compounds of the present invention were tested for their in vitro activity in tumor cells sensitive and resistant to standard anti-cancer agents. The tumor cell lines used in this protocol are 8226 human Myeloma^1; 8226/Dox-40^2, L-1210/Murine Leukemia, multidrug resistant L-210/^3, 2780 Human Ovarian Cancer and 2780/AD^4. Each of these resistant cell lines is known as a multidrug resistant or "MDR" cell line. These cell lines produce a 170,00 molecular weight membrane protein termed the P-glycoprotein which acts as an active drug efflux pump. Thus, once a cell produces the P-glycoprotein, it has the capability of pumping out of the cell a large variety of unrelated natural products. […] The protocol for measuring the effectiveness of compounds of the present invention is as follows: 2) In Vitro Tumor Cell Viability Assays Using MTT-Dye: Tumors are processed into a single cell suspension as described above. The cells are plated at a concentration of 3-5 X 10^4/1 mL well into plastic 96-well plates. […] Afterwards the medium containing the drug is removed, the cells are "washed" by centrifugation in fresh medium or phosphate-buffered saline (pH 7.4). A tetrazolium dye is then added (3,4,5-dimethylthiazol-2-yl)-2,5-diphenyl tetrazolium bromide (MTT). This dye forms a colored formazan product upon activation by mitochondrial reductases in viable cells. Typically, the formazan product is solubilized in acid-propanol or DMSO. The intensity of the color is proportional to viable cell numbers and this is quantitated by spectrophotometric absorbance ([…]) on a micro ELISA plate reader. Test results are calibrated in % control absorbance from untreated tumor cells (Mossman T: J Immunol Meth 65:55-63, 1983). Using the above procedure, Compound 1 was tested for its cytotoxic activity with respect to various tumor cell lines.

8226/DOX-40 = experiment: In vitro tumor cell viability assay using MTT dye; format: cell-based, Human; conditions: for IC50: Homo sapiens
Description: as §1

FRESH HUMAN TUMORS = experiment: Colony forming assay in fresh human tumors, all tumor types; format: cell-based; conditions: Total of all tumor types; .001 ug/mL continuously; tumor cell survival of less than 50% of control
Description: The clonogenic assays were conducted in accordance with the procedure described hereinbelow: 1) Colony Forming Assays in Soft Agar: Fresh human or murine tumors are disaggregated into single cell suspensions using mechanical, hypoosmotic and/or enzymatic (trypsin) methods. The single cells (about 5 X 10^4-10^5) are plated in 35 mm plastic petri dishes onto a 1 ml "feeder layer" of 0.3% agar dissolved in growth medium containing 5-10% vol/vol of heat-inactivated fetal bovine serum, molten 0.3% agar and the antibiotics penicillin (100 u/mL) and streptomycin (100 ug/mL). Drug exposures can be performed for one hour or continuously (drugs added to final plating medium). Tumor cell colonies > 60 uM in size are counted by automated image analysis after 10-20 days of incubation in a humidified, 5-10% CO2-gassed environment maintained at 37°C. Inhibition of colony formation is calculated based on comparisons to control (untreated) plates wherein the growth of hundreds of colonies/plate is typical. […]
Fresh human tumor specimens disaggregated to single cell suspensions and exposed to .001 ug/mL of drug continuously. Percent survival represents the fraction of tumor colonies (> 60 uM size) obtained after drug treatment compared to untreated cells of the same tumor. […] Each tumor sample is analyzed in three different petri dishes (i.e., n = 3 for each sample).

[1] = system: 16-C Mammary Adenocarcinoma; experiment: Tumor growth delay in mice, Mammary 16-C model; format: in vivo; conditions: 16-C Mammary Adenocarcinoma (Southern Research Institute)
Description: Corbett, T.H., et al., Cancer Chemo Rep., 5 (1975). Mammary 16-C Adenocarcinoma and M5-76 Sarcoma: Chunks of tumor (20-50 mg) are subcutaneously implanted into the flank of B6C3F1 female mice. Drugs (10-45 mg/kg) are dissolved in saline and injected intraperitoneally every four days for three times starting one day after tumor implantation. Tumors are measured bidimensionally as described above and tumor growth delay is calculated at times to reach 1.5 and 3.0 g of tumor mass.

HT29p30 = experiment: Activity against human colon tumor cells (MTT assay, 3 day drug exposure); format: cell-based; conditions: cells plated 24 hr. prior to drug addition, read-out: Concentration for 50% inhibition of colony formation for human colon tumors
Description: (§2) For example, the compounds of the present invention were evaluated for cytotoxic activities in cloned human colon carcinomas. The clonogenic assays were conducted in accordance with the procedure described hereinbelow: 1) Colony Forming Assays in Soft Agar: Fresh human or murine tumors are disaggregated into single cell suspensions using mechanical, hypoosmotic and/or enzymatic (trypsin) methods. The single cells (about 5 X 10^4-10^5) are plated in 35 mm plastic petri dishes onto a 1 ml "feeder layer" of 0.3% agar dissolved in growth medium containing 5-10% vol/vol of heat-inactivated fetal bovine serum, molten 0.3% agar and the antibiotics penicillin (100 u/mL) and streptomycin (100 ug/mL). Drug exposures can be performed for one hour or continuously (drugs added to final plating medium). Tumor cell colonies > 60 uM in size are counted by automated image analysis after 10-20 days of incubation in a humidified, 5-10% CO2-gassed environment maintained at 37°C. Inhibition of colony formation is calculated based on comparisons to control (untreated) plates wherein the growth of hundreds of colonies/plate is typical. (Salmon SE, et al., N Engl J Med 298(24):1321-1327, 1978).
as §1

SW80p105 = experiment: as above; format: cell-based; conditions: cells plated 24 hr. prior to drug addition, read-out: Concentration for 50% inhibition of colony formation for human colon tumors
Description: as §2, §1

- IC50 (2780/AD; Homo sapiens, 96 h, 2780/AD MDR, P-glycoprotein (+), 10-fold resistance to Doxorubicin, 4-day drug exposure, MTT dye reduction): 2.7 µg/mL (≈ 8.48 µM)
- IC50 (8226/DOX-40; 96 h, 8226/DOX-40, 40-fold resistant to Doxorubicin, 4-day drug exposure, MTT dye reduction, read-out: Activity (IC50)): 0.036 µg/mL (≈ 0.113 µM)
- IC50 (8226/DOX-40; 8226 Myeloma Cells Resistant, continuous exposure, MTT dye assay, read-out: IC50 VALUES): 0.03 µg/mL (≈ 0.0942 µM)
- IC50 (HT29p30): 340 nM
- IC50 (SW80p105): 150 nM
Structure (SMILES): CN(C)CCN1C(=O)c2cccc3cc4ccccc4c(c23)C1=O [Compound 1, 2-[2'-(dimethylamino)ethyl]-1,2-dihydro-3H-dibenz(deh)isoquinoline-1,3-dione]
- Cross Resistance (2780/AD; 2780/AD versus 2780 Human Ovarian Cancer): None
- Cross Resistance (8226/DOX-40; 8226/DOX-40 versus 8226 Human Myeloma): 3-fold
- Overall Response (FRESH HUMAN TUMORS): 51%
- Experimental Activity, Days of Tumor Growth Delay [1]: 7 days TT
